Structures are written as SMILES.

Molecule `COc1cc(/C=C/C(=O)/C=C/c2ccc(O)c(OC)c2)ccc1O` displayed a melting point of 82 to 83 °C. As for `O=C(O)c1cn(-c2ccc(F)cc2F)c2c(F)c(N3Cc4cccc(F)c4C3)c(F)cc2c1=O`, the figure is > 300 °C. `CCC(=O)Nc1ccc(-c2ccnc3c(C(=O)c4ccco4)cnn23)cc1` yielded a melting point of 235 to 237 °C. As for `O=CN1C2CCC1CC(Oc1ccc(Cl)cn1)C2` (stereo not drawn), the figure is 112 to 114 °C. As for `CCn1c(=O)oc2cc(N3C[C@H](C(N)=O)OC3=O)ccc21`, the figure is 234 to 236 °C; as for `COc1cc(/C=C(\C(=O)NCCCCCC(=O)NO)c2ccc(F)cc2)cc(OC)c1`, 104 to 105 °C; as for `CC1CCCCC1OC(=O)c1cc(NCSc2ccccc2)ccc1Cl` (stereo not drawn), 143 to 144 °C. For the molecule `CC(C)N1CCN(CCN2CCN(c3cn(-c4ccc(F)cc4)c4cc(Cl)ccc34)CC2)C1=O`, the melting point lay within 176 to 177 °C. As for `NC(=O)Cc1cnc(Nc2n[nH]c3ccc(-c4ncccc4Cl)cc23)s1`, the figure is > 230 °C; as for `C=Cn1c(Cl)cc(Cl)c(O)c1=S`, 114 °C; as for `OC(COc1ccc(F)c(F)c1)CN1CCC(NCc2nc3ccccc3s2)CC1` (single isomer, unassigned; (+)), 65.8 °C. As for `CCCCCc1noc(-c2ccc(N3CCN(C(=O)c4ccccc4C(F)(F)F)CC3)nn2)n1`, the figure is 164 °C; as for `Cc1cc(C(=O)Oc2ccccc2)c(O)c2ccccc12`, 76 to 77 °C; as for `COc1ccc(-c2ccc(C(=O)Nc3ccc4nc(CN5CCCCC5)ccc4c3)cc2)cc1`, 192 to 194 °C. Consider `Cc1cc(S(C)(=O)=O)c(S(C)(=O)=O)cc1C(=O)O`, for which the melting point was in the range of 234 to 235 °C.

Consider `CCCCN(CCCC)CCCNc1ccccc1[N+](=O)[O-]`, for which the melting point is 79 °C.

On to `O=[N+]([O-])c1ccc(O)c(-c2cccs2)c1`, for which the melting point is 130 °C.

For the molecule `CC(C)/[N+]([O-])=C/c1ccc(O)cc1`, the melting point was in the range of 217 to 218 °C. On to `COC(=O)COCCOc1ccc(N)cc1`, for which the melting point was in the range of 51 to 52.5 °C. As for `CN1C(=S)Cc2ccccc21`, the figure is 108 to 109 °C; as for `ClC(Cl)=NC(Cl)(Cl)C(Cl)(Cl)N=C(Cl)Cl`, 167 °C; as for `CC1(C)Cc2cccc(OCCNCc3cncc(C4=CCCC4)c3)c2O1`, 141 °C.

`COc1cccc2c(CCCCN(CC3CC3)C3COc4c(F)ccc(C(N)=O)c4C3)coc12` (stereo not drawn) came in with a melting point of 114 to 120 °C. As for `CC1c2cccc3c2N(CC3)c2ccccc2N1C(=O)CCCCl` (stereo not drawn), the figure is 88 to 90 °C.

Molecule `O=[N+]([O-])c1cc2cc(Br)ccc2nc1Cl` displayed a melting point of 203 °C.

In turn, `COC(=O)c1cnc(COC(=O)C(C)(C)Oc2ccc(Cl)cc2)s1` yielded a melting point of 80 °C. As for `COc1cc(S(=O)(=O)c2ccccc2)ccc1N`, the figure is 149 to 150 °C; as for `C#CCn1c(=O)cc(-c2ccccc2)c2cccnc21`, 127 to 129 °C; as for `CS(=O)(=O)c1ccc(-c2cnn(-c3ccc(F)c(F)c3)c(=O)c2Oc2ccc(Cl)cc2)cc1`, 192 to 194 °C. Molecule `CC(=O)N(CC(C)C)C1NC(=O)N(c2ccc(C(=O)O)cc2)C(=O)N1` displayed a melting point of 191 to 193 °C.

Consider `Clc1ccc(OCc2ccccc2)c(OCC2CO2)c1Cl` (stereo not drawn), for which the melting point is 59 to 61 °C. As for `O=C(Nc1nccs1)C(=O)c1cn(Cc2ccc(F)cc2)c2ccccc12`, the figure is 233 to 237 °C; as for `CC(C)CC(NC(=O)c1cc(F)ccc1SSc1ccc(F)cc1C(=O)NC(CC(C)C)C(=O)O)C(=O)O` (stereo not drawn), 246 to 247 °C. `CC1CCC(n2ncc(-c3ccc(S(C)(=O)=O)cc3)c(-c3ccc(F)cc3)c2=O)C1` (stereo not drawn) registered a melting point of 169 to 171 °C. As for `CCCc1nc(C(C)(C)O)c(C(=O)OCc2oc(=O)oc2C)n1Cc1ccc(-c2ccccc2C(=O)O)cc1`, the figure is 90 to 93 °C; as for `CC1=NC(NC(=O)Nc2cccc(C)c2)C(=O)N(CC(=O)C2CCCCCCC2)c2c(C)cccc21` (stereo not drawn), 163 to 164 °C.

On to `Cc1cccc(-c2nscc2C(=O)O)c1`, for which the melting point fell in the range of 144 to 146 °C. As for `C=C(C)C(=O)Oc1ccc(N(C)S(C)(=O)=O)cc1`, the figure is 126 to 127 °C; as for `Cc1nc2c(O)c(CC[C@H](O)c3ccccc3)c(C(=O)N(C)C)cn2c1C`, 185 to 187 °C. As for `COc1ccc(OC)c(C(=O)N2CCc3cc(O)ccc3C2)c1`, the figure is 61 to 86 °C.

Molecule `CCn1cc(C(=O)O)c(=O)c2cc(F)c(N3CCNCC3)c(F)c21` showed a melting point of 234 to 236 °C. `COc1nc(Cl)n2nc(SCc3ccccc3)nc2c1Br` showed a melting point of 124 to 125 °C. As for `CCCCC1=NC2(CCCC2)C(=O)N1Cc1ccc(-c2ccccc2S(=O)(=O)Nc2onc(C)c2C)c(OCCOC)c1`, the figure is 55 to 58 °C; as for `CCn1c(C)c(C2(N(c3ccccc3)c3ccccc3)OC(=O)c3cccnc32)c2ccccc21` (stereo not drawn), 132 to 136 °C. As for `COc1ccc(CC(C(O)CCC(C#N)(c2ccc(OC)c(OC)c2)C(C)C)[N+](=O)[O-])cc1OC` (stereo not drawn), the figure is 171 to 173 °C; as for `CCOC(=O)c1cccc(-c2cc3c(Nc4cccc(Cl)c4)ncnc3[nH]2)c1`, > 300 °C. As for `O=c1ccc2ccc(OCC(O)CO)cc2o1` (stereo not drawn), the figure is 118 to 120 °C; as for `O=C(Nc1cccc(-c2ccnc3c(C(=O)c4cccs4)cnn23)c1)c1ccccc1F`, 190 to 191 °C. Molecule `CCn1c(C)nc2cc(C(F)(F)F)c(OC)cc21` had a melting point of 127 to 130 °C. For `CCCOc1ccc(CCCCCC(=O)O)cc1`, the melting point was in the range of 42 to 43 °C. As for `Cc1ccnn1-c1c(Cl)cc(C(F)(F)F)cc1Cl`, the figure is 78 to 84 °C; as for `Clc1ccc(CNN2C=CN=CC2)cc1`, 86 to 87 °C. As for `CCOc1ccc2c(c1)n(C1CCCCC1)c(=O)n2S(=O)(=O)c1ccc(N)cc1OC`, the figure is 228 °C.

Regarding `O=C(CN1C(=O)C(c2ccccc2)c2ccccc21)N1CCOCC1` (stereo not drawn), the melting point is 153 to 154 °C. As for `Nc1nc(N)c(NC=O)c(Cl)n1`, the figure is > 300 °C; as for `O=C1Nc2ccc(C(F)(F)F)cc2C1c1ncnc2c1cnn2C1CCCC1` (stereo not drawn), > 300 °C; as for `Cc1cc(NS(=O)(=O)c2ccccc2)no1`, 107 to 108 °C. `CCCCCS(=O)(=O)NC(=O)CCc1ccc(OCCOC)cc1OCC1CCCCC1` displayed a melting point of 81 to 82 °C. As for `Cn1cc(-c2cccc(C(F)(F)F)c2)c(=O)c(-c2ccccc2Br)c1`, the figure is 197 to 199 °C. As for `CC(C)(C=C=CC(=O)O)c1ccc(Cl)cc1`, the figure is 64 to 67 °C; as for `O=C(O)CC1CCCc2c1n(Cc1ccc(Cl)cc1)c1ccc(F)cc21` (single isomer, unassigned; (-)), 151 to 152 °C; as for `CCN(CC)C(=O)CCC(=O)Nc1ccc(C(=O)N2CCCCc3ccccc32)cc1`, 165 to 167 °C. As for `CCCc1c(OCCCOc2cccc3c2CCCC3)ccc2c1OC(CCCC(=O)O)(CCCC(=O)O)CC2=O`, the figure is 138 °C; as for `O=C(NCCCc1ccncc1)N(CCC12CC3CC(CC(C3)C1)C2)CC1CC1`, 123 to 125 °C. In the case of `O=C1CCC(N2C(=O)c3ccccc3C2=S)C(=O)N1` (stereo not drawn), the melting point was found to be 255 °C. As for `O=C(N[C@@H](Cc1ccccc1)C(=O)N[C@H](CO)Cc1c[nH]c2ccccc12)OCc1ccccc1`, the figure is 154 to 156 °C. As for `O=C(CSCCOc1ccccc1)NNC(=O)c1ccc(Cl)nc1`, the figure is 136 to 138 °C; as for `O=C(O)c1ccc(OCCNC(=O)C2Cc3ccccc3N2S(=O)(=O)c2ccc(-c3cc(C(F)(F)F)ccc3Cl)cc2)cc1Cl` (stereo not drawn), 106 to 112 °C; as for `NC(=O)N(O)Cc1cccc(OCc2coc(-c3ccc(F)cc3)n2)c1`, 89 to 91 °C. `CC(C)(C)OC(=O)CN1C(=O)SC(Cc2ccc(N3CCC(NCC(O)c4ccc(O)c(NS(C)(=O)=O)c4)CC3)cc2)C1=O` (stereo not drawn) had a melting point of 130 to 132 °C.

On to `O=C(c1ccccc1)C(Cl)(Cl)C1CCCCC1`, for which the melting point fell in the range of 92.5 to 94 °C. As for `CC(CCC(=O)O)(Sc1cc(C(C)(C)C)c(O)c(C(C)(C)C)c1)Sc1cc(C(C)(C)C)c(O)c(C(C)(C)C)c1`, the figure is 90 to 92 °C; as for `COc1ccc(C2(C#Cc3ccc(C(=O)O)cc3)CCCC(=O)C2)cc1OC1CCCC1` (racemic), 102 to 104 °C. In the case of `CSc1cccc(-c2ccccc2NC(=N)N(C)C)c1`, the melting point fell in the range of 94 to 95 °C. As for `N#Cc1cnccc1O`, the figure is 234 to 236 °C; as for `NS(=O)(=O)c1cc(N(CCCl)CCCl)c([N+](=O)[O-])cc1[N+](=O)[O-]`, 153 to 154 °C. As for `O=C(O)CC[C@H](NC(=O)Oc1ccc(N(CCCl)CCCl)cc1)C(=O)O`, the figure is 87 to 89 °C; as for `COc1ccc(Cn2nc(-n3cnn(Cc4ccc(F)cc4)c3=O)cc2C(=O)NCc2cccnc2)cc1`, 210 to 211 °C. As for `CCOC(=O)c1nc(SC)n2c1c(=O)n(C)c1cc(C(F)(F)F)ccc12`, the figure is 202 to 204 °C; as for `O=C(O)CCCNc1nc2ccccc2c(=O)o1`, 147 to 148 °C. Turning to `Cc1c(C)c(C(=O)O)c(C)c(C)c1C(=O)O`, the melting point was > 300 °C. As for `CCOC(=O)NN=C(C)c1ccccn1`, the figure is 113 °C; as for `CCOC(=O)CN1CC(=O)N(C)c2ccc(NC(=O)NCc3ccccc3)cc2C1=O`, 151 °C.

Turning to `O=C(Cn1ccnc1)CS(=O)(=O)c1ccccc1`, the melting point is 137 to 140 °C.

The molecule `O=C(CN1C(=O)C(c2ccccc2)c2ccccc21)NCc1ccccc1` (stereo not drawn) displayed a melting point of 182 to 183 °C. As for `NCCOc1ccc(O)cc1`, the figure is 175 °C; as for `CN1CC=C(c2c[nH]c3ccc(Oc4ccccn4)cc23)CC1`, 240 to 245 °C; as for `O=Cc1c2ccccc2cc2c1sc1ccccc12`, 199 °C.

These data come from a melting point compilation (Tetko et al.; mined from patent text by program, amines drawn as free bases though some values may be those of a salt).
